Measurements from patent US20040242426A1, “New derivatives of substituted anilined with herbicidal activity” (priority 2001, published 2004).

What was measured:
Assay type in all cases: in vivo
[1] = tested on: Panicum dicothomiflorum (PD); test: Herbicidal activity in pre-emergence; settings: dose 500 g/ha, 28 days after treatment, damage scale 0-5 vs blank
Protocol: (§1) Determination of the herbicidal activity and phytotoxicity in pre-emergence. The herbicidal activity of the compounds of the invention in pre-emergence was evaluated according to the following operating procedure. The vegetable species of interest (weeds or crops) were planted in vases having a diameter of over 10 cm, a height of 10 cm and containing sandy soil. 10 vases were used for each vegetable species. The vases were divided into a further two groups each containing 5 vases for each weed or crop. 24 hours after planting, the vases were dampened with a light shower. An hour after wetting, the first group of vases was treated with a hydro-acetone dispersion containing acetone at 10% v, the product to be evaluated at the desired concentration and Tween 20 at 0.5%. The second group was only treated with a hydroacetone solution containing acetone at 10% by volume and Tween 20 at 0.5%, and was used as a comparison (blank). After the treatment, all the vases were uniformly watered and kept in a conditioned environment under the following environmental conditions: temperature: 24° C. relative humidity: 60% photoperiod: 16 hours light intensity: 10,000 lux 28 days after treatment, the herbicidal activity was evaluated on the basis of the following scale of values referring to the percentage of damage measured on the treated plants with respect to those not treated (blank): Table 3 indicates the results obtained with compounds C-1, C-2 and C-3, evaluated at a dose of 500 g/ha on the following vegetable species: Amarantus retroflexus (AR), Capsella bursa pastoris (CP), Chenopodium album (CA), Galium aparine (GA), Matricaria chamomilla (MC), Papaver rhoeas (PR), Portulaca oleracea (PO), Stellaria media (SM), Alopecurus myosuroides (AM), Panicum dicothomiflorum (PD), maize (M), wheat (F).

[2] = tested on: Alopecurus myosuroides (AM); test: Herbicidal activity in pre-emergence; settings: dose 500 g/ha, 28 days after treatment, damage scale 0-5 vs blank
Protocol: as §1

[3] = tested on: Stellaria media (SM); test: Herbicidal activity in pre-emergence; settings: dose 500 g/ha, 28 days after treatment, damage scale 0-5 vs blank
Protocol: as §1

[4] = tested on: Chenopodium album (CA); test: Herbicidal activity in pre-emergence; settings: dose 500 g/ha, 28 days after treatment, damage scale 0-5 vs blank
Protocol: as §1

[5] = tested on: Galium aparine (GA); test: Herbicidal activity in pre-emergence; settings: dose 500 g/ha, 28 days after treatment, damage scale 0-5 vs blank
Protocol: as §1

[6] = tested on: Portulaca oleracea (PO); test: Herbicidal activity in pre-emergence; settings: dose 500 g/ha, 28 days after treatment, damage scale 0-5 vs blank
Protocol: as §1

[7] = tested on: Papaver rhoeas (PR); test: Herbicidal activity in pre-emergence; settings: dose 500 g/ha, 28 days after treatment, damage scale 0-5 vs blank
Protocol: as §1

[8] = tested on: Matricaria chamomilla (MC); test: Herbicidal activity in pre-emergence; settings: dose 500 g/ha, 28 days after treatment, damage scale 0-5 vs blank
Protocol: as §1

[9] = tested on: Amarantus retroflexus (AR); test: Herbicidal activity in pre-emergence; settings: dose 500 g/ha, 28 days after treatment, damage scale 0-5 vs blank
Protocol: as §1

[10] = tested on: Capsella bursa pastoris (CP); test: Herbicidal activity in pre-emergence; settings: dose 500 g/ha, 28 days after treatment, damage scale 0-5 vs blank
Protocol: as §1

[11] = tested on: wheat (F); test: Phytotoxicity in pre-emergence; settings: wheat (crop), dose 500 g/ha, 28 days after treatment, damage scale 0-5 vs blank
Protocol: (§2) Determination of the herbicidal activity and phytotoxicity in pre-emergence. The herbicidal activity of the compounds of the invention in pre-emergence was evaluated according to the following operating procedure. The vegetable species of interest (weeds or crops) were planted in vases having a diameter of over 10 cm, a height of 10 cm and containing sandy soil. 10 vases were used for each vegetable species. The vases were divided into a further two groups each containing 5 vases for each weed or crop. 24 hours after planting, the vases were dampened with a light shower. An hour after wetting, the first group of vases was treated with a hydro-acetone dispersion containing acetone at 10% v, the product to be evaluated at the desired concentration and Tween 20 at 0.5%. The second group was only treated with a hydroacetone solution containing acetone at 10% by volume and Tween 20 at 0.5%, and was used as a comparison (blank). […]

[12] = tested on: maize (M); test: Phytotoxicity in pre-emergence; settings: maize (crop), dose 500 g/ha, 28 days after treatment, damage scale 0-5 vs blank
Protocol: as §2

Structure (SMILES) | Herbicidal activity in pre-emergence, PD [1] | Herbicidal activity in pre-emergence, AM [2] | Herbicidal activity in pre-emergence, SM [3] | Herbicidal activity in pre-emergence, CA [4] | Herbicidal activity in pre-emergence, GA [5] | Herbicidal activity in pre-emergence, PO [6] | Herbicidal activity in pre-emergence, PR [7] | Herbicidal activity in pre-emergence, MC [8] | Herbicidal activity in pre-emergence, AR [9] | Herbicidal activity in pre-emergence, CP [10] | Herbicidal activity (phytotoxicity) in pre-emergence, F [11] | Herbicidal activity (phytotoxicity) in pre-emergence, M [12]
Cc1ccc(NC(=O)C2CC2)c(COc2cccc(C(F)(F)F)c2)c1 [C-2, N-[4-methyl-2-(3-trifluoromethylphenoxy)methylphenyl]cyclopropanecarboxamide] | 5 (5=90% damage—death of the plant) | 5 (5=90% damage—death of the plant) | 5 (5=90% damage—death of the plant) | 5 (5=90% damage—death of the plant) | 5 (5=90% damage—death of the plant) | 5 (5=90% damage—death of the plant) | 5 (5=90% damage—death of the plant) | 5 (5=90% damage—death of the plant) | 5 (5=90% damage—death of the plant) | 5 (5=90% damage—death of the plant) | 0 (0=0-9% damage) | 0 (0=0-9% damage)
Cc1ccc(NC(=O)C2CC2)c(OCc2cccc(C(F)(F)F)c2)c1 [C-1, N-[4-methyl-2-(3-trifluoromethylphenyl)-methoxyphenyl]cyclopropanecarboxamide] | 5 (5=90% damage—death of the plant) | 5 (5=90% damage—death of the plant) | 5 (5=90% damage—death of the plant) | 5 (5=90% damage—death of the plant) | 5 (5=90% damage—death of the plant) | 5 (5=90% damage—death of the plant) | 5 (5=90% damage—death of the plant) | 5 (5=90% damage—death of the plant) | 5 (5=90% damage—death of the plant) | 5 (5=90% damage—death of the plant) |  | 
